Results on nine compounds are retold here after patent US20260234141A1, “COMPOUNDS AND COMPOSITIONS USEFUL AS DEGRADERS OF MK2 KINASE” (Celgene Corporation, priority 2023, published 2026).

The target of one assay is T1, MK2 (Homo sapiens, UniProt P49137).
T1 construct: expressed in transfected cells
The assay can be described thus: MK2 degradation assay in MK2 overexpressed HiBiT-tagged cell line. The format is cell-based. The settings on record: cells stably expressing HiBiT-tagged MK2 (overexpressed), overnight incubation, read-out: HiBiT MK2 OE EC50. The procedure:
A compound was dispensed into a white 384-well tissue-culture treated plate using an acoustic liquid handler. Dilutions were based on a 25 μL assay volume in duplicate 10 point 3-fold serial dilutions starting with a 10 μM dose. Negative control wells containing only 0.2% DMSO were also included to calculate 100% signal. All wells were backfilled to a final DMSO concentration of 0.2% to ensure DMSO uniformity across wells. Cells stably expressing HiBiT-tagged protein of interest were then washed, trypsinized, and counted.
These cells were then resuspended in fresh medium to give the proper concentration. This was done so that when cells were plated at a 25 μL seeding volume the assay would be conducted within the linear range from optimization of cell-based HiBiT assay. Following the above procedure, 25 μL of cells expressing HiBiT-tagged protein of interest were dispensed per well. Cells were then seeded into the 384-well plate that was pre-spotted with compounds. The resulting cells were incubated overnight at 37° C./5% CO2.
The 384-well plates were then removed from the incubator and left at room temperature for 30 min. The Nano-Glo HiBiT Lytic Detection Reagent was prepared according to manufacturer's instructions. 25 μL of Nano-Glo HiBiT Lytic Detection Reagent were added per well of a 384-well plate. The resulting plates were incubates for 30 min at room temperature. Luminescence signal was then read using a plate reader.
All luminescence values were normalized to the DMSO control wells. The average value of the DMSO control wells was set to equal 100% of the relative HiBiT-tagged target protein levels.
The luminescence values were plotted using a graphing software. Compound concentration was plotted on the x-axis and the corresponding relative protein of interest levels on the y-axis. Graphing software was used to determine the EC50 value (the half-maximum effective concentration) of a compound for the degradation of the HiBiT-tagged substrate. The software used a four-parameter logistic model (sigmoidal dose-response model) (FIT=(A+{(B−A)/1+[(C/x)^D]})) where C was the inflection point (EC50), D was the […], and A and B were the low and high limits of the fit, respectively) to calculate the EC50. The Ymin was calculated by determining the lowest percentage of target protein remaining following compound treatment.

Assay [1] addresses T2, p38a activated, mitogen-activated protein kinase-activated protein kinase 2 (MAPKAP-K2 or MK2) enzyme (Homo sapiens, UniProt P49137).
T2 construct: purchased Invitrogen PV3317
The assay can be described thus: MK2 OMNIA biochemical assay (AssayQuant continuous-read kinase assay). The settings on record: [MK-2]=0.05 nM, [ATP]=100 μM, [AQT0425]=10 μM. The procedure: The protocol below describes a continuous-read kinase assay optimized to measure potency of compounds against p38a activated, mitogen-activated protein kinase-activated protein kinase 2 (MAPKAP-K2 or MK2) enzyme.
A 1.25× stock solution of MK2 (PV3317, from Invitrogen) and a 5× stock solution of ATP and Sox conjugated peptide substrate, AQT0425 (CSKS-AQT0425B, from AssayQuant Technologies), were prepared in 1× kinase reaction buffer consisting of 50 mM HEPES, pH 7.5, 0.01% Brij-35, 0.55 mM EGTA, 10 mM MgCl2 and 1 mM DTT.
10 μL of the ATP and substrate solution mix was added to a Corning (3574) 384-well, white, non-binding surface microtiter plate containing […] of serially diluted test compounds prepared in DMSO. The reactions were started with the addition of 40 μL of the enzyme solution and monitored every 71 seconds for 240 min at λex 360/λem 485 in a Synergy H4 plate reader from BioTek at room temperature.
The initial linear portions of the net progress curves were fit according to a linear equation to yield the slope and percentage of inhibition (% inhibition) at each compound concentration. The net progress curves obtained during the entirety of reactions were also fit according to an ascending single-exponential equation (Eq. 1) to yield Vobs values at each compound concentration. Plots of % Inhibition versus degrader concentrations were fit according to a dose-response equation (Eq. 2) to generate IC50 and Hill slope values while plots of Vobs versus degrader concentration were fit according to Equation 3 (Eq. 3) to generate apparent Kinact values using the GraphPad PRISM software.
where F is the fluorescence intensity from the plate reader, V0 is a constant reflecting the relationship between the instrument readout and product concentration, t is time, e is Euler's number, and Vobs is the observed inactivation rate constant.
where % Inhibition is percentage of inhibition, IC50 is half maximal inhibitory concentration, [I] is the degraders concentration, and n is the Hill slope.
where kobs is the observed inactivation rate constant, Kinact is the apparent inactivation rate constant, KI is the apparent inhibition constant, and [I] is the degrader concentration.

T2 sequence (P49137 whole entry): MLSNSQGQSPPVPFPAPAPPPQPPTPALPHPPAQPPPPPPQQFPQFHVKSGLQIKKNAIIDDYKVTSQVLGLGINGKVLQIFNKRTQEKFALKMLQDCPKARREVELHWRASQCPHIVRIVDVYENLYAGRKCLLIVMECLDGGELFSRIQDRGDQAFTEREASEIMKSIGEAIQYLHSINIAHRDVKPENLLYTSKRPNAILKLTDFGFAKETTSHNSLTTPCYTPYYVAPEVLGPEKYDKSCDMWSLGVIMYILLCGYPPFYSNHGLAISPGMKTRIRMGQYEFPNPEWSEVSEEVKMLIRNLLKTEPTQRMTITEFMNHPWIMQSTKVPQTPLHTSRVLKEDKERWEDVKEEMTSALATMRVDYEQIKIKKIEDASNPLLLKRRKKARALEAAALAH
T1 sequence (P49137 whole entry): as above

As to `Cn1nc(C2CCC(=O)NC2=O)c2ccc(N3CCN(C[C@H]4CC[C@H](NC(=O)c5ccc(-c6cc(-c7cc8c([nH]7)CCNC8=O)ccn6)c(F)c5)CC4)CC3)cc21` (stereo partly drawn) [Example 1.5, N-[trans-4-[[4-[3-(2,6-dioxo-3-piperidyl)-1-methyl-indazol-6-yl]piperazin-1-yl]methyl]cyclohexyl]-3-fluoro-4-[4-(4-oxo-1,5,6,7-tetrahydropyrrolo[3,2-c]pyridin-2-yl)-2-pyridyl]benzamide], the DC50 on MK2 was below 10 nM. In addition, the IC50 (as a rule, the concentration that gives 50% inhibition) in assay [1] is below 150 nM.
Consider `O=C1CCC(c2ccc(N3CCN(C[C@H]4CC[C@H](NC(=O)c5ccc(-c6cc(-c7cc8c([nH]7)CCNC8=O)ccn6)c(F)c5)CC4)CC3)cc2)C(=O)N1` (stereo partly drawn) [Example 1.6, N-(trans-4-((4-(4-(2,6-Dioxopiperidin-3-yl)phenyl)piperazin-1-yl)methyl)cyclohexyl)-3-fluoro-4-(4-(4-oxo-4,5,6,7-tetrahydro-1H-pyrrolo[3,2-c]pyridin-2-yl)pyridin-2-yl)benzamide], for which the DC50 on MK2 was in the range of 10 to 100 nM. In assay [1], the IC50 was in the range of 151 to 500 nM.
As for `O=C1CCC(c2cccc(N3CCN(C[C@H]4CC[C@H](NC(=O)c5ccc(-c6cc(-c7cc8c([nH]7)CCNC8=O)ccn6)c(F)c5)CC4)CC3)c2)C(=O)N1` (stereo partly drawn) [Example 1.7, N-(trans-4-((4-(3-(2,6-Dioxopiperidin-3-yl)phenyl)piperazin-1-yl)methyl)cyclohexyl)-3-fluoro-4-(4-(4-oxo-4,5,6,7-tetrahydro-1H-pyrrolo[3,2-c]pyridin-2-yl)pyridin-2-yl)benzamide], the DC50 at MK2 was 10 to 100 nM. Also, the IC50 in assay [1] lay within 151 to 500 nM.
Consider `Cn1nc(C2CCC(=O)NC2=O)c2ccc(N3CCN(CC[C@H]4CC[C@H](NC(=O)c5ccc(-c6cc(-c7cc8c([nH]7)CCNC8=O)ccn6)c(F)c5)CC4)CC3)cc21` (stereo partly drawn) [Example 1.8, N-(trans-4-(2-(4-(3-(2,6-Dioxopiperidin-3-yl)-1-methyl-1H-indazol-6-yl)piperazin-1-yl)ethyl)cyclohexyl)-3-fluoro-4-(4-(4-oxo-4,5,6,7-tetrahydro-1H-pyrrolo[3,2-c]pyridin-2-yl)pyridin-2-yl)benzamide], for which the DC50 at MK2 was below 10 nM. The concentration for half-maximal inhibition (IC50) in assay [1] is 501 to 1000 nM.
Consider `O=C1CCC(c2cccc(N3CCN(CC[C@H]4CC[C@H](NC(=O)c5ccc(-c6cc(-c7cc8c([nH]7)CCNC8=O)ccn6)c(F)c5)CC4)CC3)c2)C(=O)N1` (stereo partly drawn) [Example 1.9, N-(trans-4-(2-(4-(3-(2,6-Dioxopiperidin-3-yl)phenyl)piperazin-1-yl)ethyl)cyclohexyl)-3-fluoro-4-(4-(4-oxo-4,5,6,7-tetrahydro-1H-pyrrolo[3,2-c]pyridin-2-yl)pyridin-2-yl)benzamide], for which the DC50 at MK2 lay in the range of 101 to 500 nM. Also, the IC50 in assay [1] was 151 to 500 nM.
As to `O=C1CCC(c2ccc(N3CCN(CC[C@H]4CC[C@H](NC(=O)c5ccc(-c6cc(-c7cc8c([nH]7)CCNC8=O)ccn6)c(F)c5)CC4)CC3)cc2)C(=O)N1` (stereo partly drawn) [Example 1.10, N-(trans-4-(2-(4-(4-(2,6-Dioxopiperidin-3-yl)phenyl)piperazin-1-yl)ethyl)cyclohexyl)-3-fluoro-4-(4-(4-oxo-4,5,6,7-tetrahydro-1H-pyrrolo[3,2-c]pyridin-2-yl)pyridin-2-yl)benzamide], the DC50 on MK2 lay in the range of 10 to 100 nM. Also, the 50% inhibitory concentration (IC50) in assay [1] fell in the range of 501 to 1000 nM.
Take `Cn1nc(C2CCC(=O)NC2=O)c2ccc(N3CCN(CCN4CCN(c5cccc(-c6cc(-c7cc8c([nH]7)CCNC8=O)ccn6)c5)CC4)CC3)cc21` (stereo not drawn) [Example 1.11, 3-(1-Methyl-6-(4-(2-(4-(3-(4-(4-oxo-4,5,6,7-tetrahydro-1H-pyrrolo[3,2-c]pyridin-2-yl)pyridin-2-yl)phenyl)piperazin-1-yl)ethyl)piperazin-1-yl)-1H-indazol-3-yl)piperidine-2,6-dione]: the DC50 on MK2 is 101 to 500 nM. In addition, in assay [1], the IC50 is below 150 nM.
With `O=C1CCC(c2ccc(N3CCN(CCN4CCN(c5cccc(-c6cc(-c7cc8c([nH]7)CCNC8=O)ccn6)c5)CC4)CC3)cc2)C(=O)N1` (stereo not drawn) [Example 1.12, 3-(4-(4-(2-(4-(3-(4-(4-Oxo-4,5,6,7-tetrahydro-1H-pyrrolo[3,2-c]pyridin-2-yl)pyridin-2-yl)phenyl)piperazin-1-yl)ethyl)piperazin-1-yl)phenyl)piperidine-2,6-dione], the DC50 on MK2 was above 500 nM. Further, the IC50 in assay [1] was 151 to 500 nM.
The like results for `Cn1nc(C2CCC(=O)NC2=O)c2cccc(N3CCN(CCN4CCN(c5ccc(-c6cc(-c7cc8c([nH]7)CCNC8=O)ccn6)c(F)c5)CC4)CC3)c21` (stereo not drawn) [Example 1.13, 3-(7-(4-(2-(4-(3-Fluoro-4-(4-(4-oxo-4,5,6,7-tetrahydro-1H-pyrrolo[3,2-c]pyridin-2-yl)pyridin-2-yl)phenyl)piperazin-1-yl)ethyl)piperazin-1-yl)-1-methyl-1H-indazol-3-yl)piperidine-2,6-dione] were, in that order, below 10 nM and 501 to 1000 nM.
